Laboratory results published in patent US10647747B2, “Cyclosporin derivatives and uses thereof” (S&T Global Inc., priority 2010, dated 2020).
*1 amine or outer side, *2 acyl side, *3 side chain or, on linkers, in order; H or OH if unused. Where a SMILES comes first, the peptide text is derived from it. [ ]: non-standard residue; d: D form. The star is where a group is joined. MeBmt = C/C=C/C[C@@H](C)[C@@H](O)[C@H](NC)C(=O)O; X8 = CCN(CC)CCS[C@@H](C(=O)[*:2])N(C)[*:1]; X3 = CC=CCC(C)C(O)C(C(=O)[*:2])N(C)[*:1]; X5 = CSCOC(C)(C)CC(C(=O)[*:2])N(C)[*:1]; X4 = CCN(CC)CCSC(C(=O)[*:2])N(C)[*:1]; NMeL = CN[CH](CC(C)C)C(=O)O; NMeV = CN[CH](C(=O)O)C(C)C; Et2NCH2CH2 = CCN(CC)CC*; NMeC = CN[CH](CS)C(=O)O; Abu = CC[CH](N)C(=O)O

Tested on: HCV replicon in cell line ET (luc-ubi-neo/ET), Huh7 human hepatoma
Assay: HCV subgenomic replicon assay, luciferase end point
Assay type: cell-based
Conditions: HCV subgenomic replicon, cell line ET (luc-ubi-neo/ET) Huh7, luciferase end point; read-out: Antiviral activity EC50

| Compound | EC50 |
| --- | --- |
| C/C=C/C[C@@H](C)[C@@H](O)[C@H]1C(=O)N[C@@H](CC)C(=O)N(C)[C@H](COCCCN(C)C)C(=O)N(C)[C@@H](CC(C)(C)O)C(=O)N[C@@H](C(C)C)C(=O)N(C)[C@@H](CC(C)C)C(=O)N[C@@H](C)C(=O)N[C@H](C)C(=O)N(C)[C@@H](CC(C)C)C(=O)N(C)[C@@H](CC(C)C)C(=O)N(C)[C@@H](C(C)C)C(=O)N1C | 260 nM |
| CC=CCC(C)C(O)C1C(=O)NC(CC)C(=O)N(C)C(CSCCN(CC(C)C)CC(C)C)C(=O)N(C)C(CC(C)(C)O)C(=O)NC(C(C)C)C(=O)N(C)C(CC(C)C)C(=O)NC(C)C(=O)NC(C)C(=O)N(C)C(CC(C)C)C(=O)N(C)C(CC(C)C)C(=O)N(C)C(C(C)C)C(=O)N1C (stereo not drawn) | 120 nM |
| CC=CCC(C)C(O)C1C(=O)NC(CC)C(=O)N(C)C(CSCCN(CC)CC)C(=O)N(C)C(CC(C)(C)OC)C(=O)NC(C(C)C)C(=O)N(C)C(CC(C)C)C(=O)NC(C)C(=O)NC(C)C(=O)N(C)C(CC(C)C)C(=O)N(C)C(CC(C)C)C(=O)N(C)C(C(C)C)C(=O)N1C (stereo not drawn) | 90 nM |
| CC=CCC(C)C(O)C1C(=O)NC(CC)C(=O)N(C)C(CSCCN(C)CC(C)(C)C)C(=O)N(C)C(CC(C)(C)O)C(=O)NC(C(C)C)C(=O)N(C)C(CC(C)C)C(=O)NC(C)C(=O)NC(C)C(=O)N(C)C(CC(C)C)C(=O)N(C)C(CC(C)C)C(=O)N(C)C(C(C)C)C(=O)N1C (stereo not drawn) | 70 nM |
| CC=CCC(C)C(O)C1C(=O)NC(CC)C(=O)N(C)C(CSCCCN(C)C)C(=O)N(C)C(CC(C)(C)OC)C(=O)NC(C(C)C)C(=O)N(C)C(CC(C)C)C(=O)NC(C)C(=O)NC(C)C(=O)N(C)C(CC(C)C)C(=O)N(C)C(CC(C)C)C(=O)N(C)C(C(C)C)C(=O)N1C (stereo not drawn) | 90 nM |
| CC=CCC(C)C(O)C1C(=O)NC(CC)C(=O)N(C)C(CSCCN(CC)CC)C(=O)N(C)C(C(C)C)C(=O)NC(C(C)C)C(=O)N(C)C(CC(C)C)C(=O)NC(C)C(=O)NC(C)C(=O)N(C)C(CC(C)C)C(=O)N(C)C(CC(C)C)C(=O)N(C)C(C(C)C)C(=O)N1C [[(S)-(2-(N,N-Diethylamino)ethylthio)methyl-Sar]-3-[N-MeVal]-4-cyclosporin] (cyclo([X3][Abu][NMeC](Et2NCH2CH2)[NMeV]V[NMeL]AA[NMeL][NMeL][NMeV]); configuration not given here) | 140 nM |
| CC=CCC(C)C(O)C1C(=O)NC(CC)C(=O)N(C)C(CSCCN2CCN(C)CC2)C(=O)N(C)C(CC(C)(C)O)C(=O)NC(C(C)C)C(=O)N(C)C(CC(C)C)C(=O)NC(C)C(=O)NC(C)C(=O)N(C)C(CC(C)C)C(=O)N(C)C(CC(C)C)C(=O)N(C)C(C(C)C)C(=O)N1C (stereo not drawn) | 90 nM |
| C/C=C/C[C@@H](C)[C@@H](O)[C@H]1C(=O)N[C@@H](CC)C(=O)N(C)[C@H](COCCCN2CCOCC2)C(=O)N(C)[C@@H](CC(C)(C)O)C(=O)N[C@@H](C(C)C)C(=O)N(C)[C@@H](CC(C)C)C(=O)N[C@@H](C)C(=O)N[C@H](C)C(=O)N(C)[C@@H](CC(C)C)C(=O)N(C)[C@@H](CC(C)C)C(=O)N(C)[C@@H](C(C)C)C(=O)N1C [[(R)-(3-(N-Morpholino)propoxy)methyl-Sar]-3-[(γ-hydroxy)-N-MeLeu]-4-cyclosporin] | 90 nM |
| C/C=C/C[C@@H](C)[C@@H](O)[C@H]1C(=O)N[C@@H](CC)C(=O)N(C)[C@H](COCCN(CC)CC)C(=O)N(C)[C@@H](CC(C)(C)OC)C(=O)N[C@@H](C(C)C)C(=O)N(C)[C@@H](CC(C)C)C(=O)N[C@@H](C)C(=O)N[C@H](C)C(=O)N(C)[C@@H](CC(C)C)C(=O)N(C)[C@@H](CC(C)C)C(=O)N(C)[C@@H](C(C)C)C(=O)N1C | 60 nM |
| CC=CCC(C)C(O)C1C(=O)NC(CC)C(=O)N(C)C(CSCCCN2CCCCC2)C(=O)N(C)C(CC(C)(C)OC)C(=O)NC(C(C)C)C(=O)N(C)C(CC(C)C)C(=O)NC(C)C(=O)NC(C)C(=O)N(C)C(CC(C)C)C(=O)N(C)C(CC(C)C)C(=O)N(C)C(C(C)C)C(=O)N1C (stereo not drawn) | 60 nM |
| C/C=C/C[C@@H](C)[C@@H](O)[C@H]1C(=O)N[C@@H](CC)C(=O)N(C)[C@H](CSCCCN(CC)CC)C(=O)N(C)[C@@H](CC(C)(C)O)C(=O)N[C@@H](C(C)C)C(=O)N(C)[C@@H](CC(C)C)C(=O)N[C@@H](C)C(=O)N[C@H](C)C(=O)N(C)[C@@H](CC(C)C)C(=O)N(C)[C@@H](CC(C)C)C(=O)N(C)[C@@H](C(C)C)C(=O)N1C | 80 nM |
| C/C=C/C[C@@H](C)[C@@H](O)[C@H]1C(=O)N[C@@H](CC)C(=O)N(C)[C@H](CSCCN(C)C)C(=O)N(C)[C@@H](CC(C)C)C(=O)N[C@@H](C(C)C)C(=O)N(C)[C@@H](CC(C)C)C(=O)N[C@@H](C)C(=O)N[C@H](C)C(=O)N(C)[C@@H](CC(C)C)C(=O)N(C)[C@@H](CC(C)C)C(=O)N(C)[C@@H](C(C)C)C(=O)N1C (single isomer, unassigned; isomer b) [[(S)-(2-(N,N-Dimethylamino)ethylthio)methyl-Sar]-3-cyclosporin (isomer B)] | 170 nM |
| CC=CCC(C)C(O)C1C(=O)NC(CC)C(=O)N(C)C(COCCN2CCOCC2)C(=O)N(C)C(CC(C)(C)OC)C(=O)NC(C(C)C)C(=O)N(C)C(CC(C)C)C(=O)NC(C)C(=O)NC(C)C(=O)N(C)C(CC(C)C)C(=O)N(C)C(CC(C)C)C(=O)N(C)C(C(C)C)C(=O)N1C [[(R)-(2-(N-Morpholino)ethoxy)methyl-Sar]-3-[(γ-methoxy)-N-MeLeu]-4-cyclosporin] | 150 nM |
| CC=CCC(C)C(O)C1C(=O)NC(CC)C(=O)N(C)C(COCCCN(CC)CC)C(=O)N(C)C(CC(C)(C)O)C(=O)NC(C(C)C)C(=O)N(C)C(CC(C)C)C(=O)NC(C)C(=O)NC(C)C(=O)N(C)C(CC(C)C)C(=O)N(C)C(CC(C)C)C(=O)N(C)C(C(C)C)C(=O)N1C (stereo not drawn) | 180 nM |
| CC=CCC(C)C(O)C1C(=O)NC(CC)C(=O)N(C)C(CSCCCN(CC)C(C)C)C(=O)N(C)C(CC(C)(C)O)C(=O)NC(C(C)C)C(=O)N(C)C(CC(C)C)C(=O)NC(C)C(=O)NC(C)C(=O)N(C)C(CC(C)C)C(=O)N(C)C(CC(C)C)C(=O)N(C)C(C(C)C)C(=O)N1C (stereo not drawn) | 60 nM |

Same assay, conditions: Hepatitis C virus, Huh-7, HCV subgenomic replicon, cell line ET (luc-ubi-neo/ET) Huh7, luciferase end point; read-out: Antiviral activity EC50

| Compound | EC50 |
| --- | --- |
| C/C=C/C[C@@H](C)[C@@H](O)[C@H]1C(=O)N[C@@H](CC)C(=O)N(C)[C@H](C)C(=O)N(CC)[C@@H](C(C)C)C(=O)N[C@@H](C(C)C)C(=O)N(C)[C@@H](CC(C)C)C(=O)N[C@@H](C)C(=O)N[C@H](C)C(=O)N(C)[C@@H](CC(C)C)C(=O)N(C)[C@@H](CC(C)C)C(=O)N(C)[C@@H](C(C)C)C(=O)N1C [[D-N-MeAla]-3-[N-EtVal]-4-cyclosporin, reference compound] | 70 nM |
| C/C=C/C[C@@H](C)[C@@H](O)[C@H]1C(=O)N[C@@H](CC)C(=O)N(C)[C@H](CSCCNC(C)C)C(=O)N(C)[C@@H](CC(C)(C)O)C(=O)N[C@@H](C(C)C)C(=O)N(C)[C@@H](CC(C)C)C(=O)N[C@@H](C)C(=O)N[C@H](C)C(=O)N(C)[C@@H](CC(C)C)C(=O)N(C)[C@@H](CC(C)C)C(=O)N(C)[C@@H](C(C)C)C(=O)N1C | 190 nM |

Same assay, conditions: Hepatitis C virus, Huh-7, Table 16, HCV replicon luciferase; read-out: Antiviral activity EC50

| Compound | EC50 |
| --- | --- |
| C/C=C/C[C@@H](C)[C@@H](O)[C@H]1C(=O)N[C@@H](CC)C(=O)N(C)[C@H](C)C(=O)N(CC)[C@@H](C(C)C)C(=O)N[C@@H](C(C)C)C(=O)N(C)[C@@H](CC(C)C)C(=O)N[C@@H](C)C(=O)N[C@H](C)C(=O)N(C)[C@@H](CC(C)C)C(=O)N(C)[C@@H](CC(C)C)C(=O)N(C)[C@@H](C(C)C)C(=O)N1C [[D-N-MeAla]-3-[N-EtVal]-4-cyclosporin, reference compound] | 50 nM |

Same assay, conditions: Table 12, HCV replicon luciferase; read-out: Antiviral activity EC50

| Compound | EC50 |
| --- | --- |
| CC=CCC(C)C(O)C1C(=O)NC(CC)C(=O)N(C)C(SCCN(CC)CC)C(=O)N(C)C(CC(C)(C)OCSC)C(=O)NC(C(C)C)C(=O)N(C)C(CC(C)C)C(=O)NC(C)C(=O)NC(C)C(=O)N(C)C(CC(C)C)C(=O)N(C)C(CC(C)C)C(=O)N(C)C(C(C)C)C(=O)N1C (stereo not drawn) (cyclo([X3][Abu][X4][X5]V[NMeL]AA[NMeL][NMeL][NMeV]); configuration not given here) | 110 nM |
| CC=CCC(C)C(O)C1C(=O)NC(CC)C(=O)N(C)C(SCCN(CC(C)C)C(C)C)C(=O)N(C)C(CC(C)C)C(=O)NC(C(C)C)C(=O)N(C)C(CC(C)C)C(=O)NC(C)C(=O)NC(C)C(=O)N(C)C(CC(C)C)C(=O)N(C)C(CC(C)C)C(=O)N(C)C(C(C)C)C(=O)N1C [(S)-2-(N-iso-Butyl-N-iso-propylamino)ethylthio-Sar]-3-cyclosporin] | 480 nM |
| (R)-2-(N-iso-Butyl-N-iso-propylamino)ethylthio-Sar]-3-cyclosporin | 4650 nM |
| C/C=C/C[C@@H](C)[C@@H](O)[C@H]1C(=O)N[C@@H](CC)C(=O)N(C)[C@@H](SCCN(CC)CC)C(=O)N(C)[C@@H](C(C)C)C(=O)N[C@@H](C(C)C)C(=O)N(C)[C@@H](CC(C)C)C(=O)N[C@@H](C)C(=O)N[C@H](C)C(=O)N(C)[C@@H](CC(C)C)C(=O)N(C)[C@@H](CC(C)C)C(=O)N(C)[C@@H](C(C)C)C(=O)N1C [(S)-2-(N,N-Diethylamino)ethylthio-Sar]-3-[N-MeVal]-4-cyclosporin] (cyclo(A[dA][NMeL][NMeL][NMeV][MeBmt][Abu][X8][NMeV]V[NMeL])) | 40 nM |

Same assay, conditions: Table 13, HCV replicon luciferase; read-out: Antiviral activity EC50

| Compound | EC50 |
| --- | --- |
| CC=CCC(C)C(O)C1C(=O)NC(CC)C(=O)N(C)C(SCCCN2CCOCC2)C(=O)N(C)C(CC(C)(C)O)C(=O)NC(C(C)C)C(=O)N(C)C(CC(C)C)C(=O)NC(C)C(=O)NC(C)C(=O)N(C)C(CC(C)C)C(=O)N(C)C(CC(C)C)C(=O)N(C)C(C(C)C)C(=O)N1C [[(S)-3-(N-Morpholino)propylthio-Sar]-3-[(γ-hydroxy)-N-MeLeu]-4-cyclosporin] | 50 nM |
| CC=CCC(C)C(O)C1C(=O)NC(CC)C(=O)N(C)CC(=O)N(C)C(CO)C(=O)NC(C(C)C)C(=O)N(C)C(CC(C)C)C(=O)NC(C)C(=O)NC(C)C(=O)N(C)C(CC(C)C)C(=O)N(C)C(CC(C)C)C(=O)N(C)C(C(C)C)C(=O)N1C (stereo not drawn) [[N-MeSer]-4-cyclosporin] | 560 nM |

Same assay, conditions: Table 16, HCV replicon luciferase; read-out: Antiviral activity EC50

| Compound | EC50 |
| --- | --- |
| CC=CCC(C)C(O)C1C(=O)NC(CC)C(=O)N(C)C(CSCCCN2CCN(CCC)CC2)C(=O)N(C)C(CC(C)(C)O)C(=O)NC(C(C)C)C(=O)N(C)C(CC(C)C)C(=O)NC(C)C(=O)NC(C)C(=O)N(C)C(CC(C)C)C(=O)N(C)C(CC(C)C)C(=O)N(C)C(C(C)C)C(=O)N1C (stereo not drawn) | 50 nM |
| CC=CCC(C)C(O)C1C(=O)NC(CC)C(=O)N(C)C(CSCCCN2CCSCC2)C(=O)N(C)C(CC(C)(C)O)C(=O)NC(C(C)C)C(=O)N(C)C(CC(C)C)C(=O)NC(C)C(=O)NC(C)C(=O)N(C)C(CC(C)C)C(=O)N(C)C(CC(C)C)C(=O)N(C)C(C(C)C)C(=O)N1C (stereo not drawn) | 50 nM |
| CC=CCC(C)C(O)C1C(=O)NC(CC)C(=O)N(C)C(CSCCCCN(CC(C)C)CC(C)C)C(=O)N(C)C(CC(C)(C)O)C(=O)NC(C(C)C)C(=O)N(C)C(CC(C)C)C(=O)NC(C)C(=O)NC(C)C(=O)N(C)C(CC(C)C)C(=O)N(C)C(CC(C)C)C(=O)N(C)C(C(C)C)C(=O)N1C (stereo not drawn) | 40 nM |
